From US20260258373A1, “PEPTIDE TAGS FOR PHAGE IMAGING” (priority 2022, published 2026)
Where two headings read alike, the source gives them in different places. Cy5 = cyanine 5 dye

Legend:
Matera (MAT) = test: Monoclonal phage ELISA (cross-reactivity / validation) against MAT; assay type: binding, Matera (family Myoviridae); conditions: peptide displayed on monoclonal phage; cross-reactivity assay
BSA = BSA (Bos taurus, UniProt P02769); test: Cross-reactivity ELISA against BSA (negative control); assay type: binding, bovine; conditions: peptide displayed on monoclonal phage, cross-reactivity assay
Experimental: (§1) A Nunc Maxisorp flat-bottom 96-well plate was coated with 6×10^9 pfu GV per well (in TBS, pH 8) and incubated overnight at 4° C. Plates coated with 2% (w/v) bovine serum albumin (BSA) were used as negative controls. Next day, the plates were blocked with 2% (w/v) BSA at room temperature for 1 h, shaking at 800 rpm. The plates were then washed with 0.1% TBST (3×1 min) before adding 20 μL of amplified phage from each biopanning cycle to each well in 5% (w/v) BSA. After further incubation at room temperature for 1 h, shaking at 800 rpm, the plates were washed with 0.5% TBST (3×5 min) before adding 100 μL horseradish peroxidase (HRP)-conjugated anti-M13 monoclonal antibody (Abcam ab50370, diluted 1:500) and incubating at room temperature for 1 h, shaking at 800 rpm. After further washes in 0.5% TBST (3×5 min), Applicant added 100 μL of the tetramethylbenzidine (TMB) substrate (Thermo Fisher Scientific) to each well. The plates were incubated in the dark for 10 min and the absorbance was measured at 370 nm using an Infinite 200 Rx plate reader (Tecan Life Sciences) with 25 flashes in 96-well flat-bottom plate mode.
(§2) The protocol was similar to the polyclonal ELISA. Applicant coated wells with 10 μg cowpea mosaic virus (CPMV) or 1010 GV particles to assess their binding activity.

[1] = tested on: cowpea mosaic virus (CPMV); test: Cross-reactivity ELISA against CPMV; assay type: binding; conditions: peptide displayed on monoclonal phage; cross-reactivity assay
Experimental: as §1, §2

Good Vibes phage (GV) [2] = test: Monoclonal phage ELISA (cross-reactivity / validation) against GV; assay type: binding; conditions: peptide displayed on monoclonal phage; cross-reactivity assay
Experimental: as §1
The protocol was similar to the polyclonal ELISA. […] Monoclonal phages differing in absorbance between GV and BSA by at least 0.3 units were isolated for DNA sanger sequencing (Eurofins Genomics). […]

Good Vibes phage (GV) [3] = conditions: GV 1, 10 or 65 μg coated; 0.01 μg peptide; absorbance 450 nm; FIG. 5B
Experimental: GV (1, 10 or 65 μg) was coated onto Nunc Maxisorp flat-bottom 96-well plates and incubated for 1 h at room temperature, shaking at 400 rpm. All incubation and washing steps were carried out at room temperature, shaking at 400 rpm, unless otherwise stated. The wells were blocked for 1 h with 300 μL 5% (w/v) BSA followed by washing once with 0.1% PBST for 5 min. Applicant then added 0.01 μg of GVBP-biotin peptide to the wells and incubated for 1 h. The wells were then washed three times with 0.1% PBST for 5 min each before adding streptavidin HRP conjugate (ab7403) diluted 1:10,000 and incubating for 30 min. The wells were washed another three times as above before adding 100 μL of TMB substrate and incubating for 5-10 min in the dark. The reaction was stopped by adding 50 μL 2M H2SO4 and the absorbance was measured at 450 nm using an Infinite 200 Rx plate reader as described above.

P. aeruginosa cells = test: Flow cytometry of GVBP-Cy5, cells without phages; assay type: binding, Pseudomonas aeruginosa
Experimental: (§3) An overnight culture of P. aeruginosa was diluted 100-fold in fresh medium. The culture was incubated at 37° C. to reach OD600~0.2 before adding ~10^11 pfu of GV to the cells and incubating at 37° C. for 15 min. The cells were pelleted by centrifugation (6000 g, 15 min, at room temperature), washed once with 800 μL TM buffer (10 mM Tris base, 5 μM CaCl2), 10 mM MgSO4, pH 7.4) and resuspended in 200 μL of the same buffer. Applicant added GVBP-Cy5 (2×10^13 units) and incubated the mixture for 15 min at room temperature before centrifugal washing three times with 0.1% PBST (6000 g, 5 min, at room temperature). The pellet was resuspended in 200 μL TM buffer and the binding of GVBP-Cy5 to GV was analyzed using an Accuri C6 Plus flow cytometer (BD Biosciences). A total of 30,000 events were collected for each analysis.

Good Vibes phage (GV) [4] = test: GVBP-Cy5 ELISA; assay type: binding; conditions: GV 0.1, 1, 10 or 63 μg coated; 0.05 μg peptide; fluorescence 647/665 nm; FIG. 5C
Experimental: Applicant then added 0.05 μg of GVBP-Cy5 peptide and incubated for 1 h. […] The fluorescence was measured using an Infinite 200 Rx plate reader with excitation and emission wavelengths of 647 and 665 nm, respectively, and a gain of 50.

[5] = tested on: GV bound to P. aeruginosa cells; test: Flow cytometry of GVBP-Cy5, cells with phages; assay type: binding, Good Vibes phage on Pseudomonas aeruginosa
Experimental: as §3

Good Vibes phage (GV) [6] = test: competitive ELISA, GVER2738 against GVER2738_SYBR on GV-coated wells and on BSA-coated wells

Molecule | ELISA signal against MAT (Matera (MAT)) | ELISA signal against BSA (BSA) | ELISA signal against CPMV [1] | ELISA signal against GV (Good Vibes phage (GV) [2]) | other results
THLPPIMRNLQF | strong signal | not against CPMV or BSA | not against CPMV or BSA | strong signal | –
H2N-WDLPPIGRLSGNGGGSK/biotin/—CO2H [GVBP-biotin] | – | – | – | – | intensity of signal of bound peptide with increasing amounts of GV coating the plates (Good Vibes phage (GV) [3]): became stronger
WDLPPIGRLSGN [H2N-WDLPPIGRLSGN—CO2H] | strong signal | not against CPMV or BSA | not against CPMV or BSA | strong signal | –
H2N-WDLPPIGRLSGNGGGSK/Cy5/—CO2H (H-WDLPPIGRLSGNGGGSK(Cy5)-OH; also: C-terminal Cy5, attachment not given here) [GVBP-Cy5] | – | – | – | – | fluorescent signal (median fluorescence intensity, MFI) (P. aeruginosa cells; in the absence of phage, FIG. 6B): weaker signal; APC+ shift (P. aeruginosa cells; population containing P. aeruginosa cells without phages, peptide added, FIG. 6A panel iii): 7.6%; intensity of signal of bound peptide with increasing amounts of GV coating the plates (Good Vibes phage (GV) [4]): became stronger; fluorescent signal (median fluorescence intensity, MFI) ([5]; cells and phages plus GVBP-Cy5, FIG. 6B): strongest fluorescent signal; APC+ shift ([5]; population containing both P. aeruginosa cells and GV phages, in the presence of GVBP-Cy5, FIG. 6A panel iv): 15.4%; binding to GV by flow cytometry ([5]; summary statement): significant binding
WDLPPIGRLSGN (modifications not checked) [monoclonal phage GVER2738 displaying the peptide …] | – | – | – | – | fold of KD value, GV against BSA (Good Vibes phage (GV) [6]): 12 times
